Laboratory results: PMC7473840, “Identification of a molecular locus for normalizing dysregulated GABA release from interneurons in the Fragile X brain” (Molecular Psychiatry, 2018)
Entries after “also recorded” stand apart in the source; their conditions may differ.

Legend:
[1] = ref Invitrogen; read-out: Kd (Ca2+ indicator); cited from earlier work
BC–PN synapse, Fmr1-KO = experiment: sIPSCs from PNs, Fmr1-KO synapses; type: cell-based, mouse; settings: 10 µM applied to Fmr1-KO cerebellar slices; n = 8
Kv1.2 = experiment: K+ current by voltage ramp, CHO cells expressing Kv1.2-WT; type: cell-based; settings: 1 µM, n = 7
From the text: Fig. 3 Direct interaction between FMRP and Kv1.2 in a phosphorylation-specific manner. a Illustration of an alpha subunit of Kv1.2 channel with extensive details of intracellular C-terminus. b K^+ current generated by a voltage ramp (−90 to 100 mV, top) from CHO cells expressing WT (Kv1.2-WT, middle) or truncated Kv1.2 (Kv1.2-Δ429-500, bottom) before and after infusion of N-terminus FMRP protein (n-FMRP, H00002332-P01, Novus Biologicals, 1:100 dilution). c The changes in amplitude of K^+ current by n-FMRP is summarized for Kv1.2-WT (n = 8) and Kv1.2-Δ429-500 (n = 8) constructs. d Co-IP of Kv1.2 and FMRP in the absence or presence of three peptides targeting the sequence (436–457) of C-terminus of Kv1.2 as highlighted in a phosphorylated (PhosKv436-457), non-phosphorylated (Kv436-457), and phosphorylated scrambled peptide. e Summary of effect of the three peptides. […] The changes in the amplitude and frequency of sIPSCs are summarized in the right panels for PhosKv436-457 (n = 6, f), non-phosphorylated Kv436-457 (n = 6, g), and scrambled (n = 5, h) peptides.
Fig. 5 DHA rescue and graphical overview of the function of FMRP at the BC–PN synapses. a, b Currents generated by a voltage ramp (−90 to 100 mV) from CHO cells transfected with recombinant Kv1.2 in the absence (black) or presence (red) of DHA (1 µM). These currents are fit with a Boltzmann function: f(V) = Imax/(1+e^(V1/2−V)/Vc)+C, in which “Imax” denotes the theoretical value of the maximal amplitude of Kv1.2 currents; “V1/2” indicates the depolarization voltage needed to produce the half-maximal amplitude of the currents; “Vc” is the slope factor describing the steepness of the Boltzmann curve. The parameters for the two groups (n = 7) are summarized in (b). c, d sIPSCs recorded from PNs in Fmr1-KO slices with (bottom) or without (top) DHA (10 µM). Changes in the amplitude and frequency of sIPSC (n = 8) are quantified in (d). e, f APs from PNs before (top) and after (bottom) DHA application (10 µM). […] In WT BCs, there are two populations of Kv1.2 channels being in either non-phosphorylated or phosphorylated state (with C-termini colored in black and turquoise respectively; +/−P to symbolize phosphate modification). The N-terminus of FMRP dimers directly interact with C-terminus of Kv1.2 only in a phosphorylated state. This interaction enhances the gating (Pathway 1), membrane targeting (Pathway 2), and/or axonal trafficking (Pathway 3) of Kv1.2 in the nerve terminal to control its excitability and Ca^2+ dynamics (blue) critical for tuning inhibitory neurotransmission and ensuring the final output from principal neurons (i.e., PNs). […]

[2] = test system: PNs, Fmr1-KO cerebellar slices; experiment: Spontaneous firing of PNs, cell-attached, Fmr1-KO; type: cell-based, mouse; settings: 10 µM, Fmr1-KO, cell-attached; n = 7
adult Fmr1-KO mice = experiment: Acoustic startle reflex (ASR); type: in vivo, mouse; settings: chow enriched with 0.5% w/w DHA for 1 week; n = 11 versus n = 10 control; double-blind
Description: As previously described, acoustic startle response was measured from 7–9-week-old mice, which were submitted to no pulse or a pulse stimulation (120 dB, 40 ms) alone or in combination of a prepulse (either 72, 78, or 82 dB, 20 ms). Maximal startle response was recorded and compared between groups for all types of trials. The sound attenuated chambers and analysis software were obtained from San Diego Instruments (San Diego, USA). One week prior to testing, mice were fed with normal chow or calorically equivalent chow enriched with 0.5% DHA (Sigma) prepared by Research Diets (New Brunswick, USA). Diets were prepared with identical dyes to be indistinguishable by eye. Mice were tested for acoustic startle response only once between 4 p.m. and 7 p.m.

Fmr1-KO mice = experiment: Three-chambered sociability test, Fmr1-KO; type: in vivo, mouse; settings: 200 mg/kg i.p., 30 min before test; 7–9-week-old male; n = 7
From the text: (§1) The three-chambered sociability test was composed of three sessions: habituation (trail 1), sociability (trial 2), and social novelty (trial 3), which evaluated sociable behavior and recognition of social novelty. For habituation, 7–9-week-old testing male mouse was placed in the middle chamber and allowed to freely explore all three chambers. In the sociability session, a stranger mouse (the same strain and gender but never encountered before) was put underneath a grid cup and placed in one of the two side-chambers, while another identical empty cup was placed on the other side. In the social novelty session, another stranger mouse was put inside the previously empty cup. Each session lasted 9 min. Physical contacts around the cups with the nose, head, and forelimbs, were defined as sniffing behavior and used as an index for sociable behavior [47]. A camera, connected to a computer, was used to track mice activity using the ANY-maze software (ANY-maze, Stoelting Co., IL, USA). Testing was conducted 30 min after saline or DHA (200 mg/kg, Sigma) injection (intraperitoneal, i.p.) to minimize distress from drug administration and ensure normal physical activity that could be affected by DHA for a short period.

WT mice = experiment: Three-chambered sociability test, WT; type: in vivo, mouse; settings: 200 mg/kg
From the text: as §1

[3] = ref [45]; cited from earlier work

In the case of Fluo-4, the Kd [1] is given as 345 nM.
With `CC/C=C\C/C=C\C/C=C\C/C=C\C/C=C\C/C=C\CCC(=O)O` [DHA, docosahexaenoic acid] the “amplitude and frequency of sIPSCs” value (BC–PN synapse, Fmr1-KO) was “reduced amplitude and frequency of sIPSCs”, the “half-activation voltage (V1/2)” value (Kv1.2; Boltzmann fit) was “decreased the half-activation voltage (V1/2)” and the “maximal amplitude of Kv1.2 currents” value (Kv1.2; Boltzmann fit) was “the maximal amplitude was unaffected”. For the same compound, the “slope factor (Vc)” value (Kv1.2; Boltzmann fit) was “increased the slope factor (Vc)”, the “shift in Kv1.2 currents evoked by voltage ramp” value (Kv1.2; ramp −90 to 100 mV) was “a significant leftward shift in the Kv1.2 currents” and the “spike (AP) frequency of PNs” value [2] was “increases the frequency of APs in the Fmr1-KO synapses; also recorded: enhanced the spike frequency of PNs, restoring the firing rate of Fmr1-KOs to the same level as the WTs”. The “acoustic startle reflex from 120-dB sound stimulation” value (adult Fmr1-KO mice) was “significantly attenuated ASR”, the social novelty recognition (Fmr1-KO mice) was “improved the deficient social novelty recognition” and the “distance travelled during the trials” value (WT mice; WT, repeated one-way ANOVA, p>0.05) was “No significant differences”. For the same compound, the “social behavior of WT mice” value (WT mice; male C57BL/6J, n = 8, repeated two-way ANOVA) was “did not affect social performance of WT mice; also recorded: did not alter the social behaviors of WT animals”, the “sniffing time, stranger versus empty cup” value (WT mice; sociability session, WT, n = 8) was “spent more time sniffing the stranger than the empty cup” and the “sniffing time, novel stranger versus familiar mouse” value (WT mice; social novelty session, WT, n = 8) was “spent more time sniffing the novel stranger than the familiar one”. For the same compound, the “blood–brain barrier crossing” value [3] was “can cross blood–brain barrier”.
